US10952433B2, “Solutions for enhancing the effectiveness of insecticides and fungicides on living plants and related methods” (priority 2015, dated 2021)

Columns and labels:
[1] = test system: staining fungi (macerated fungal blend); test: Staining fungi coverage in inoculated stem wound of red oak seedlings, greenhouse (Table 6)
Protocol: In performing the tests employing ten red oak seedlings per iteration with the materials being tested applied at approximately 12 milliliters per seeding applied with a low volume hand spray. […] Seven days after application, a sterile razor blade wound of approximately 2 millimeters by 10 millimeters was created on each seedling stem. Immediately after, the wounding 1 ml of macerated fungal blend suspended in distilled water was applied to each stem wound. Twenty-eight days after wounding, the wounds were evaluated for an average percentage of staining fungi present in each seedling stem wound. Opaque black straw covering was applied to each wound. The opaque black straws were applied within about one minute after wounding and inoculation with the fungi. […] The purpose for using such straws is to facilitate the creation of a dark environment on the wound as fungi tend to like dark damp places. This is employed to enhance the effectiveness of the test by accelerating the severity of the fungal growing conditions. Each stem wound was given two ml of distilled water 10, 17, 21 and 28 days after wounding by a low volume trigger spray. All solutions were included a propylene glycol based dye at a concentration of 100:1. The greenhouse conditions were maintained at 65° F. to 85° F. and the humidity range of 30 to 80% relative humidity. The test which employed the combination of thiabendazole, fludioxonil and azoxystrobin was obtained as a formulated pesticide product which was available under the trade designation “Sporgard”.
The final column is a numerical grade which represents the percent of staining fungi coverage in percentage in the stem wound of the red oak seedlings as measured on day 28.

[2] = test system: staining fungi of the ceratocystis variety; test: Staining fungi in stem wound of white oak seedlings after trunk spray (Table 4); assay type: in vivo, ceratocystis (on white oak seedlings)
Protocol: Fourteen days after the stem wounding, wounds were examined for the presence of staining fungi. In creating these for solution were used the buffer and amine oxides were added to the dilute solution of fungicide.
Referring to TABLE 4 wherein a commonly used fungicide, Propiconazole was employed in tests in the amount of 50:200 PPM (parts per million) employed with and without buffered amine oxides systems 3 and 4 with some of the tests employing the 12 carbon length and others, the 1218 carbon mixture. In a preferred embodiment in 1218 on a weight basis, the 12 carbon length will be present in an amount of about 1.3 to 2.0 times the amount of 18 carbon length and in the preferred range about 1.5 to 1.8 times the amount of 18 carbon length. The tests were performed on white oak seedlings which were provided with a stem wound in which was introduced staining fungi which was of the ceratocystis variety.
The method of testing the materials was to spray the trunk of the seedling with the particular solution being tested and 7 days after such application, creating a wound of approximately 2 millimeters by 10 millimeters on each seedling stem. Fourteen days after the wounding, the wounds were examined for the presence of staining fungi.

[3] = fungicide + Amine Oxide 12 (No Buffer) 200:1, PPM: Thiabendazole/Fludioxonil/Azoxystrobin 160, Chlorothalonil 1235, Propiconazole 102, Mancozeb 1097, Vinclozolin 122, Mefenoxam 20
[4] = fungicide + Amine Oxide 1218 (No Buffer) 200:1, PPM: Thiabendazole/Fludioxonil/Azoxystrobin 160, Chlorothalonil 1235, Propiconazole 103, Mancozeb 1097, Vinclozolin 122, Mefenoxam 20
[5] = fungicide + Buffer System 3 200:1, no amine oxide, PPM: Thiabendazole/Fludioxonil/Azoxystrobin 160, Chlorothalonil 1235, Propiconazole 101, Mancozeb 1097, Vinclozolin 122, Mefenoxam 20
[6] = fungicide + buffered amine oxide, Buffer System 3, amine oxide 12, 200:1, PPM: Thiabendazole/Fludioxonil/Azoxystrobin 160, Chlorothalonil 1235, Propiconazole 105, Mancozeb 1097, Vinclozolin 122, Mefenoxam 20
[7] = fungicide + buffered amine oxide, Buffer System 3, amine oxide 1218, 200:1, PPM: Thiabendazole/Fludioxonil/Azoxystrobin 160, Chlorothalonil 1235, Propiconazole 107, Mancozeb 1097, Vinclozolin 122, Mefenoxam 20
[8] = fungicide alone, highest amount, PPM: Thiabendazole/Fludioxonil/Azoxystrobin 640, Chlorothalonil 4940, Propiconazole 400, Mancozeb 4388, Vinclozolin 488, Mefenoxam 80
[9] = fungicide alone, increased amount, PPM: Thiabendazole/Fludioxonil/Azoxystrobin 320, Chlorothalonil 2470, Propiconazole 200, Mancozeb 2194, Vinclozolin 244, Mefenoxam 40
[10] = fungicide alone, PPM: Thiabendazole/Fludioxonil/Azoxystrobin 160, Chlorothalonil 1235, Propiconazole 100, Mancozeb 1097, Vinclozolin 122, Mefenoxam 20

## N#Cc1c(Cl)c(Cl)c(Cl)c(C#N)c1Cl [Chlorothalonil]
[1]; [3]
  Percent of Staining Fungi Coverage Average (%) in Stem Wound of Red Oak Seedlings (Day 28): 64%
[1]; [4]
  Percent of Staining Fungi Coverage Average (%) in Stem Wound of Red Oak Seedlings (Day 28): 55%
[1]; [5]
  Percent of Staining Fungi Coverage Average (%) in Stem Wound of Red Oak Seedlings (Day 28): 72%
[1]; [6]
  Percent of Staining Fungi Coverage Average (%) in Stem Wound of Red Oak Seedlings (Day 28): 27%
[1]; [7]
  Percent of Staining Fungi Coverage Average (%) in Stem Wound of Red Oak Seedlings (Day 28): 33%
[1]; [8]
  Percent of Staining Fungi Coverage Average (%) in Stem Wound of Red Oak Seedlings (Day 28): 37%
[1]; [9]
  Percent of Staining Fungi Coverage Average (%) in Stem Wound of Red Oak Seedlings (Day 28): 49%
[1]; [10]
  Percent of Staining Fungi Coverage Average (%) in Stem Wound of Red Oak Seedlings (Day 28): 91%

## COCC(=O)N(c1c(C)cccc1C)[C@H](C)C(=O)OC [Mefenoxam]
[1]; [3]
  Percent of Staining Fungi Coverage Average (%) in Stem Wound of Red Oak Seedlings (Day 28): 38%
[1]; [4]
  Percent of Staining Fungi Coverage Average (%) in Stem Wound of Red Oak Seedlings (Day 28): 25%
[1]; [5]
  Percent of Staining Fungi Coverage Average (%) in Stem Wound of Red Oak Seedlings (Day 28): 52%
[1]; [6]
  Percent of Staining Fungi Coverage Average (%) in Stem Wound of Red Oak Seedlings (Day 28): 16%
[1]; [7]
  Percent of Staining Fungi Coverage Average (%) in Stem Wound of Red Oak Seedlings (Day 28): 21%
[1]; [8]
  Percent of Staining Fungi Coverage Average (%) in Stem Wound of Red Oak Seedlings (Day 28): 23%
[1]; [9]
  Percent of Staining Fungi Coverage Average (%) in Stem Wound of Red Oak Seedlings (Day 28): 42%
[1]; [10]
  Percent of Staining Fungi Coverage Average (%) in Stem Wound of Red Oak Seedlings (Day 28): 64%

## CCCC1COC(Cn2cncn2)(c2ccc(Cl)cc2Cl)O1 (stereo not drawn) [Propiconazole]
[1]; [3]
  Percent of Staining Fungi Coverage Average (%) in Stem Wound of Red Oak Seedlings (Day 28): 43%
[1]; [4]
  Percent of Staining Fungi Coverage Average (%) in Stem Wound of Red Oak Seedlings (Day 28): 55%
[1]; [5]
  Percent of Staining Fungi Coverage Average (%) in Stem Wound of Red Oak Seedlings (Day 28): 74%
[1]; [6]
  Percent of Staining Fungi Coverage Average (%) in Stem Wound of Red Oak Seedlings (Day 28): 20%
[1]; [7]
  Percent of Staining Fungi Coverage Average (%) in Stem Wound of Red Oak Seedlings (Day 28): 44%
[1]; [8]
  Percent of Staining Fungi Coverage Average (%) in Stem Wound of Red Oak Seedlings (Day 28): 33%
[1]; [9]
  Percent of Staining Fungi Coverage Average (%) in Stem Wound of Red Oak Seedlings (Day 28): 81%
[1]; [10]
  Percent of Staining Fungi Coverage Average (%) in Stem Wound of Red Oak Seedlings (Day 28): 85%
[2]; Propiconazole 50 PPM + buffered amine oxide system 3, amine oxide 12, 200:1
  Percent of Seedlings with Staining Fungi in Stem Wound of White Oak: 0%
[2]; Propiconazole 50 PPM + buffered amine oxide system 3, amine oxide 12, 400:1
  Percent of Seedlings with Staining Fungi in Stem Wound of White Oak: 20%
[2]; Propiconazole 50 PPM + buffered amine oxide system 3, amine oxide 1218, 200:1
  Percent of Seedlings with Staining Fungi in Stem Wound of White Oak: 0%
[2]; Propiconazole 50 PPM + buffered amine oxide system 3, amine oxide 1218, 400:1
  Percent of Seedlings with Staining Fungi in Stem Wound of White Oak: 0%
[2]; Propiconazole 50 PPM + buffered amine oxide system 4, amine oxide 12, 200:1
  Percent of Seedlings with Staining Fungi in Stem Wound of White Oak: 0%
[2]; Propiconazole 50 PPM + buffered amine oxide system 4, amine oxide 12, 400:1
  Percent of Seedlings with Staining Fungi in Stem Wound of White Oak: 20%
[2]; Propiconazole 50 PPM + buffered amine oxide system 4, amine oxide 1218, 200:1
  Percent of Seedlings with Staining Fungi in Stem Wound of White Oak: 0%
[2]; Propiconazole 50 PPM + buffered amine oxide system 4, amine oxide 1218, 400:1
  Percent of Seedlings with Staining Fungi in Stem Wound of White Oak: 0%
[2]; Propiconazole 50 PPM alone, 14 days after wounding
  Percent of Seedlings with Staining Fungi in Stem Wound of White Oak: 100%
[2]; Propiconazole 100 PPM alone, 14 days after wounding
  Percent of Seedlings with Staining Fungi in Stem Wound of White Oak: 80%
[2]; Propiconazole 200 PPM alone, 14 days after wounding
  Percent of Seedlings with Staining Fungi in Stem Wound of White Oak: 20%

## C=CC1(C)OC(=O)N(c2cc(Cl)cc(Cl)c2)C1=O (stereo not drawn) [Vinclozolin]
[1]; [3]
  Percent of Staining Fungi Coverage Average (%) in Stem Wound of Red Oak Seedlings (Day 28): 32%
[1]; [4]
  Percent of Staining Fungi Coverage Average (%) in Stem Wound of Red Oak Seedlings (Day 28): 16%
[1]; [5]
  Percent of Staining Fungi Coverage Average (%) in Stem Wound of Red Oak Seedlings (Day 28): 49%
[1]; [6]
  Percent of Staining Fungi Coverage Average (%) in Stem Wound of Red Oak Seedlings (Day 28): 17%
[1]; [7]
  Percent of Staining Fungi Coverage Average (%) in Stem Wound of Red Oak Seedlings (Day 28): 38%
[1]; [8]
  Percent of Staining Fungi Coverage Average (%) in Stem Wound of Red Oak Seedlings (Day 28): 15%
[1]; [9]
  Percent of Staining Fungi Coverage Average (%) in Stem Wound of Red Oak Seedlings (Day 28): 21%
[1]; [10]
  Percent of Staining Fungi Coverage Average (%) in Stem Wound of Red Oak Seedlings (Day 28): 43%

## Mancozeb
[1]; [3]
  Percent of Staining Fungi Coverage Average (%) in Stem Wound of Red Oak Seedlings (Day 28): 58%
[1]; [4]
  Percent of Staining Fungi Coverage Average (%) in Stem Wound of Red Oak Seedlings (Day 28): 30%
[1]; [5]
  Percent of Staining Fungi Coverage Average (%) in Stem Wound of Red Oak Seedlings (Day 28): 67%
[1]; [6]
  Percent of Staining Fungi Coverage Average (%) in Stem Wound of Red Oak Seedlings (Day 28): 24%
[1]; [7]
  Percent of Staining Fungi Coverage Average (%) in Stem Wound of Red Oak Seedlings (Day 28): 30%
[1]; [8]
  Percent of Staining Fungi Coverage Average (%) in Stem Wound of Red Oak Seedlings (Day 28): 22%
[1]; [9]
  Percent of Staining Fungi Coverage Average (%) in Stem Wound of Red Oak Seedlings (Day 28): 35%
[1]; [10]
  Percent of Staining Fungi Coverage Average (%) in Stem Wound of Red Oak Seedlings (Day 28): 74%
